According to patent US5834482A, “Heterocyclic chemistry” (Novo Nordisk A/S, priority 1995, dated 1998):
Where a name gives a salt, the structure may show the parent alone. Read-outs that look alike come from different tables or passages of the source.

What was measured:
GABA uptake [1] = details: cited from earlier work
GABA uptake carrier = target: T1, GABA uptake carrier (Rattus norvegicus, UniProt P31647); assay: 3H-GABA uptake in crude membrane preparation from selected brain areas (in presence of NNC 05-0711); type: biochemical
T1 construct: A crude membrane preparation was prepared from selected brain areas; from tissue
T1 sequence (P31647 1-627): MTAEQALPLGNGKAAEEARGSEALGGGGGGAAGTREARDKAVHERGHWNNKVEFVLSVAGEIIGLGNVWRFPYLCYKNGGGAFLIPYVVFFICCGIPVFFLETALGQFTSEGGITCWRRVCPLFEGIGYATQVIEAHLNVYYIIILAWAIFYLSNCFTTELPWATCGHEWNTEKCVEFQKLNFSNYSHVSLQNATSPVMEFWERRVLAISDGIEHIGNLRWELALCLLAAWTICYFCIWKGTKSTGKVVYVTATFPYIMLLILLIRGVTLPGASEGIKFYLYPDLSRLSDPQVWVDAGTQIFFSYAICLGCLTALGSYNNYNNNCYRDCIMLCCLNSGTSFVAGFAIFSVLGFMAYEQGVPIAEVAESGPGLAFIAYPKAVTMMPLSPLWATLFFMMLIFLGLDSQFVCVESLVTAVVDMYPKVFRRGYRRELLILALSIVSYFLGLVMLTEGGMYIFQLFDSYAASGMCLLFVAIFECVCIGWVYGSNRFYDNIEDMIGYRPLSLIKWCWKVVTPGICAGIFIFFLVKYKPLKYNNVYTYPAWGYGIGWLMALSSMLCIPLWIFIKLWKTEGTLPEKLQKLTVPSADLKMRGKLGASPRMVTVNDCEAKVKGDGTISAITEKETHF
Procedure: ^3 H-GABA uptake was measured by a modification of the method of Fjalland et al., (1978). A crude membrane preparation was prepared from selected brain areas by homogenization in 20 ml of ice-cold 0.32M sucrose with a hand driven teflon/glass Potter-Elvehjem homogenizer. homogenate was centrifuged at 4° C. for 10 min. at 1000×g, and the pellet was discarded. The supernatant was recentrifuged at 4° C. for 20 min. at 20.000×g. The pellet was then homogenized in 50 volumes 0.32M sucrose. To 300 μl uptake-buffer ([…], 15.3 mM KCl, 6.67 mM MgSO4, 3.83 mM CaCl2, 16.67 mM glucose, 66.67 mM Tris, pH 7.5 at 30° C.) was added 1-(2-(((diphenylmethylene)amino)oxy)ethyl)-1,2,5,6-tetrahydro-3-pyridinecarboxylic acid (NNC 05-0711) (1 mM final concentration), 100 μl test substance and 50 μl tissue suspension. The sample were mixed and incubated at 30° C. for 8 min. Then ^3 H-GABA (0.9 nM final concentration) and unlabelled GABA (25 nM final concentration) was added, and the incubation was continued for an additional 8 min. The reaction was terminated by rapid filtration through Whatman GF/F glass fiber filters under vacuum. The filters were then washed twice in 10 ml of ice-cold isotonic saline, and the tritium trapped on the filters was quantified by conventional scintillation spectroscopy. Non-GABA uptake carrier mediated uptake of ^3 H-GABA was determined in the presence of […].

GABA uptake [2] = details: into presynaptic nerve terminals and glial cells; cited from earlier work
GAT-1 = details: cloned GAT-1; cited from earlier work
[3] = in vitro, crude brain membrane preparation, 1 mM NNC 05-0711, 30° C., 8 min, 0.9 nM 3H-GABA, 25 nM unlabelled GABA, read-out: IC50 (nM) in vitro, Non-GABA uptake carrier mediated uptake of 3H-GABA

| SMILES | inhibition of GABA uptake, oral activity (GABA uptake [1]) | IC50 (GABA uptake carrier; [3]) [nM] | further results |
| --- | --- | --- | --- |
| O=C(O)C1=CCCN(CCC=C(c2ccccc2)c2ccccc2)C1 [SK&F 100330A, N-(4,4-diphenyl-3-buten-1-yl)guvacine] | orally active inhibitors of GABA uptake | – | – |
| CCc1noc(-c2cc3c4ccccc4n(CCCN4CCC(O)(c5ccccc5)CC4)c3cn2)n1 [Compound 4, 1-(3-(3-(3-Ethyl-1,2,4-oxadiazol-5-yl)-9H-β-carbolin-9-yl)-1-propyl)-4-phenylpiperidin-4-ol] | – | 932 | – |
| O=C(O)CC1CCN(CCC=C(c2ccccc2)c2ccccc2)C1 (stereo not drawn) [SK&F 100561, N-(4,4-diphenyl-3-buten-1-yl)-homo-β-proline] | orally active inhibitors of GABA uptake | – | – |
| CCc1noc(-c2cc3c4cc(N(C)C)ccc4n(CCCN4CCC(O)(c5ccccc5)CC4)c3cn2)n1 [Compound 24] | – | 4690 | – |
| C=CCN(CC=C)c1ccc2c(c1)c1cc(-c3nc(CC)no3)ncc1n2CCCN1CCC(O)(c2ccccc2)CC1 [Compound 20, 1-(3-(3-(3-Ethyl-1,2,4-oxadiazol-5-yl)-6-dipropenylamino-9H-β-carbolin-9-yl)-1-propyl-4-phenylpiperidin-4-ol hydrochloride] | – | 5380 | – |
| Cc1nc(-c2cc3c4ccccc4n(CCCN4CCC(O)(c5ccccc5)CC4)c3cn2)no1 [Compound 28, 1-(3-(5-Methyl-1,2,4-oxadiazol-3-yl)-β-carbolin-9-yl)-1-propyl)-4-phenylpiperidin-4-ol hydrochloride] | – | 1240 | – |
| O=C(O)C1CCCN(CCC=C(c2ccccc2)c2cccs2)C1 (centres unmarked) [SK&F 100604J, N-(4-phenyl-4-(2-thienyl)-3-buten-1-yl)nipecotic acid] | orally active inhibitors of GABA uptake | – | – |
| O=C(O)C1CCCN(CCC=C(c2ccccc2)c2ccccc2)C1 (centres unmarked) [SK&F 89976A, N-(4,4-diphenyl-3-buten-1-yl)nipecotic acid] | orally active inhibitors of GABA uptake | – | – |
| Cc1noc(-c2cc3c4ccccc4n(CCCN4CCC(O)(c5ccccc5)CC4)c3cn2)n1 [Compound 26, 1-(3-(3-Methyl-1,2,4-oxadiazol-5-yl)-β-carbolin-9-yl)-1-propyl)-4-phenylpiperidin-4-ol hydrochloride] | – | 1640 | – |
| OC1(c2ccccc2)CCN(CCCn2c3ccccc3c3cc(-c4nc(-c5ccccc5)no4)ncc32)CC1 [Compound 10, 1-(3-(3-(3-Phenyl-1,2,4-oxadiazol-5-yl)-9H-β-carbolin-9-yl)-1-propyl)-4-phenylpiperidin-4-ol hydrochloride] | – | – | IC50 (GABA uptake carrier): 1440 nM |
| OC1(c2ccccc2)CCN(CCCn2c3ccccc3c3cc(-c4nc(C5CC5)no4)ncc32)CC1 [Compound 7, 1-(3-(3-(3-Cyclopropyl-1,2,4-oxadiazol-5-yl)-9H-β-carbolin-9-yl)-1-propyl)-4-phenylpiperidin-4-ol hydrochloride] | – | – | IC50 (GABA uptake carrier): 1090 nM |
| CCOC(=O)c1cc2c(cn1)[nH]c1ccc([N+](=O)[O-])cc12 [Compound 15, 6-Nitro-9H-β-carboline-3-carboxylic acid ethyl ester] | – | – | IC50 (GABA uptake carrier): 6380 nM |
| O=C(O)C1CCCNC1 (centres unmarked) [nipecotic acid, 3-piperidinecarboxylic acid] | – | – | inhibition of GABA uptake from the synaptic cleft (GABA uptake [2]): potent inhibitor of GABA uptake; sensitivity of GAT-1 (GAT-1): high sensitivity |
